What was measured:
Wistar rats = assay: Vogel conflict test; format: in vivo; conditions: rat, 60 min before test, 3 minute test
Experimental: Vogel Conflict Test Protocol: The Vogel conflict test is an animal model of anxiety described by Vogel et al. (1971). In this test, water deprived animals are placed in a cage with free access to a drinking bottle. Whenever the animal drinks, an electric shock is administered. Animals punished during drinking rapidly cease to drink. Anxiolytic drugs decrease the effect of punishment and increase the number of shocks accepted by the rats in this conflict situation. Male Wistar rats were used in these studies. Rats were deprived of water for approximately 48 hours and then placed individually into a transparent Plexiglas enclosure with a floor consisting of stainless steel bars spaced 1 cm apart. The back wall of the enclosure was made of opaque Plexiglas thereby concealing the observer from the experimental animal. In the center of the opposite wall, 5 cm above the floor, a metal water spout protruded into the cage and was connected to one pole of a shock generator. The other pole of the shock generator was connected to the metal grid floor. The rat is left to explore until it finds the water spout. Then, every time it drinks, it receives an electric shock (1.7 mA, 1 sec duration) 2 seconds after it starts drinking The number of punished drinks is counted during a 3 minute test. Ten rats are studied per treatment group. Clobazam (64 mg/kg) was used as the positive control. Compounds of the present invention, vehicle (45% hydroxypropyl beta-cyclodextrin) and clobazam were administered orally to all groups (n=10 […] per group) 60 minutes prior to behavioral testing. All data were analyzed using unpaired Student's t-tests. An effect was considered significance if p<0.05.

[1] = system: central benzodiazepine receptors; assay: Central benzodiazepine receptor binding (test of Speth et al.); conditions: 1000 nM of the compound
Procedure, shortened: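 Radioligand binding by the Speth et al. method. Specific binding is total minus nonspecific binding, the latter measured with excess unlabelled ligand. Compounds screened at 1.0E-09, 1.0E-07 and 1.0E-05 M in single determination; values given as percent inhibition at 1000 nM compound.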

[2] = target: T1, α1 subtype containing GABA-A receptors (Homo sapiens, UniProt P14867+P18507); assay: Two-electrode voltage clamp electrophysiology in Xenopus oocytes, potentiation of GABA EC20 response, α1; format: cell-based; conditions: 100 nM compound, read-out: Percentage of potentiation alpha1
T1 construct: expressed in transfected cells; host or cells: Xenopus laevis oocytes, cRNA injected
Procedure, shortened: (§1)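 Xenopus oocytes expressing human α1, α2, α3 or α5 with β3 and γ2L subunits were voltage-clamped at −80 mV in ND96, pH 7.5. Potentiation of the GABA EC20 (60 μM) response by test compounds at 100 nM was measured, with one compound per oocyte. Oocytes showing low current or poor γ2L incorporation, judged by 1 μM chlordiazepoxide response, were excluded.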

[3] = target: T2, α2 subtype containing GABA-A receptors (Homo sapiens, UniProt P18507+P47869); assay: Two-electrode voltage clamp electrophysiology in Xenopus oocytes, potentiation of GABA EC20 response, α2; format: cell-based; conditions: 100 nM compound, read-out: Percentage of potentiation alpha2
T2 construct: expressed in transfected cells; host or cells: Xenopus laevis oocytes, cRNA injected
Procedure, shortened: as §1

[4] = target: T3, α5 subtype containing GABA-A receptors (Homo sapiens, UniProt P18507+P31644); assay: Two-electrode voltage clamp electrophysiology in Xenopus oocytes, potentiation of GABA EC20 response, α5; format: cell-based; conditions: 100 nM compound, read-out: Percentage of potentiation alpha5
T3 construct: expressed in transfected cells; host or cells: Xenopus laevis oocytes, cRNA injected
Experimental: (§2) Electrophysiology protocol: Oocytes were prepared from adult female Xenopus laevis frogs. cRNA encoding human α1, α2, α3, α5, β3 and γ2L GABAA receptor subunits was injected into the cytoplasm of stage 5 or 6 oocytes using the Robocyte Robot (Multi Channel Systems, Reutlingen, Germany). Two-electrode voltage clamp recordings were made in 96-well plates using the Robocyte Robot. Oocytes were impaled using recording heads with two glass electrodes containing 1.5 M potassium acetate and 0.5 M KCl and held at a membrane potential of −80 mV. Oocytes were continually perfused with a ND96 solution (96 mM NaCl, 2 mM KCl, 0.1 mM CaCl2, and 5 mM HEPES, pH 7.5) using a Gilson 222 XL Liquid Handler and Gilson Minipuls 3 Peristaltic Pump (Gilson Medical Electronics, Middleton, Wis., USA). The protocol consisted of three 20-s applications of GABA that gave a 20% of the maximum response (EC20: 60 μM) to allow for headroom to determine a baseline GABA response. To assess the potentiation, oocytes were first exposed to a single 1 μM chlordiazepoxide (CDP) as a potentiation standard. Oocytes with insufficient expression levels (currents below threshold) or insufficient γ2L subunit incorporation (judged by rapid desensitization upon GABA application, or by insufficient potentiation by CDP) were not included in analysis. Following this control application, a given oocyte was exposed to test compounds at 100 nM concentrations. Only one concentration of one compound was tested per oocyte. […] One skilled in the art will recognize that subtypes contribute to the effects of GABA-A modulators. Such that compounds favoring different subtypes can have different therapeutic effects. The magnitude of modulation, for example, partial modulators can influence the effects in vivo. “++” indicates a greater modulation that “+” so that at any given subtype “++” inducates a greater amount of modulation for that subtype. In some embodiments, modulation favoring alpha 1 relative to alpha2 and/or alpha 3 can have sedative hypnotic effects. In other embodiments, compounds with reduced selectivity of alpha 1 can express anxiolytic effects with less sedation. Compounds with selectivity for alpha 5 can have memory/cognition enhancing effects.

[5] = target: T4, α3 subtype containing GABA-A receptors (Homo sapiens, UniProt P18507+P34903); assay: Two-electrode voltage clamp electrophysiology in Xenopus oocytes, potentiation of GABA EC20 response, α3; format: cell-based; conditions: 100 nM compound, read-out: Percentage of potentiation alpha3
T4 construct: expressed in transfected cells; host or cells: Xenopus laevis oocytes, cRNA injected
Experimental: as §2

T2 sequence (P47869 29-451): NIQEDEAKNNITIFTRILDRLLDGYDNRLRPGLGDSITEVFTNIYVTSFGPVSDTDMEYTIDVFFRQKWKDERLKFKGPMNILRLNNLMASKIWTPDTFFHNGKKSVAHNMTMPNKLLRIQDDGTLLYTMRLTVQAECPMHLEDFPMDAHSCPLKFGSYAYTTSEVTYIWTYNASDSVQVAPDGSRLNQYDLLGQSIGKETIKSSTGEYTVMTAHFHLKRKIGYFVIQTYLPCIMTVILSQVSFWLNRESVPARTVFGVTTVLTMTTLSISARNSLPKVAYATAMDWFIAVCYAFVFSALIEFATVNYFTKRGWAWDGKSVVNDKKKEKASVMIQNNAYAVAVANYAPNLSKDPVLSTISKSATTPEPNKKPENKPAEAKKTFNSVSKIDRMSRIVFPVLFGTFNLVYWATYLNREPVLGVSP
T2 sequence (P28472 26-473 partner): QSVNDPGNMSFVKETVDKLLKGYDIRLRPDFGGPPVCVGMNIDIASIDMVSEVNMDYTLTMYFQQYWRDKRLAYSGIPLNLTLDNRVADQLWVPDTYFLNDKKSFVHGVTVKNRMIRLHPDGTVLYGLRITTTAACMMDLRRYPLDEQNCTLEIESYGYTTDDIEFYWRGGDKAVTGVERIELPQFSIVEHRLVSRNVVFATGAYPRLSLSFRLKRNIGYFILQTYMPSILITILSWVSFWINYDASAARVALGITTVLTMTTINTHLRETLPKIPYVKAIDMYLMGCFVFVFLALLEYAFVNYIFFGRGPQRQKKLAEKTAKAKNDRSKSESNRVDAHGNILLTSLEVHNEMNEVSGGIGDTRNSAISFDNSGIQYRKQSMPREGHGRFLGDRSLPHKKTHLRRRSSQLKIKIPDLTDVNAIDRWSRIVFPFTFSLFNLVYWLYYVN
T2 sequence (P18507 40-475): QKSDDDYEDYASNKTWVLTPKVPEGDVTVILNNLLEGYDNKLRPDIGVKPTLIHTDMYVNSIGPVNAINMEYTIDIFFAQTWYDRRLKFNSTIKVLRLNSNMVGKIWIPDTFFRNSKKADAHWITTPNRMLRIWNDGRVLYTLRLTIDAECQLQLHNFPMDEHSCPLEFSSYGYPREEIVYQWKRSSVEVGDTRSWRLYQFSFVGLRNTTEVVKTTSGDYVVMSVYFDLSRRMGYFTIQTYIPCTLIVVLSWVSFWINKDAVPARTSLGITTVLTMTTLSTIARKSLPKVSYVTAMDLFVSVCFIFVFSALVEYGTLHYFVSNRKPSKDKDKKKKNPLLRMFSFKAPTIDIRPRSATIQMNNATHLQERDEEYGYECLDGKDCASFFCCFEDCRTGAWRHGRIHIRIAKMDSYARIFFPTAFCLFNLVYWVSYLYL
T3 sequence (P31644 32-462): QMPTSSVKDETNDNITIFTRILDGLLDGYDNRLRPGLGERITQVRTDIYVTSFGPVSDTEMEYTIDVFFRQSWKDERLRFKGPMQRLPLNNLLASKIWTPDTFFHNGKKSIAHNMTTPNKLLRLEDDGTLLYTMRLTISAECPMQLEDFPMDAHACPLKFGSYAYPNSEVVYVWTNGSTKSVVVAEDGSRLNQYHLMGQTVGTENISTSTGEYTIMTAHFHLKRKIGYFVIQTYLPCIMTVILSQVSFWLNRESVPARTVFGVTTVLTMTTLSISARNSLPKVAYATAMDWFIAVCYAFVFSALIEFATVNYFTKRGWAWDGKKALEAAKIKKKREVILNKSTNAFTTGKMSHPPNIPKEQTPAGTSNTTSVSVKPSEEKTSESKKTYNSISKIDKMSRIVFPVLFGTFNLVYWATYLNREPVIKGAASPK
T3 sequence (P28472 26-473 partner): as the sequence (P28472 26-473 partner) above
T3 sequence (P18507 40-475): as the sequence (P18507 40-475) above
T1 sequence (P14867 28-456): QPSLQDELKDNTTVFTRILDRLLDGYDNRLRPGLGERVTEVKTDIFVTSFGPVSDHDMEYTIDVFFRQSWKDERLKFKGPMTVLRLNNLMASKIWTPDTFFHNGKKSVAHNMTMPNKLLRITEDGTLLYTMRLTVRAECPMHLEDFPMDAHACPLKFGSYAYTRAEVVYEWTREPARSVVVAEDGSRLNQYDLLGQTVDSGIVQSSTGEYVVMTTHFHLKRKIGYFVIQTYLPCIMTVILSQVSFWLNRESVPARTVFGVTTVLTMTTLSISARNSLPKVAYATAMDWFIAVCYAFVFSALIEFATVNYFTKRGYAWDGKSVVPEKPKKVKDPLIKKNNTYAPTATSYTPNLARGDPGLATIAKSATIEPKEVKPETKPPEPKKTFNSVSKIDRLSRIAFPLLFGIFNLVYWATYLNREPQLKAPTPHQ
T1 sequence (P28472 26-473 partner): as the sequence (P28472 26-473 partner) above
T1 sequence (P18507 40-475): as the sequence (P18507 40-475) above
T4 sequence (P34903 29-492): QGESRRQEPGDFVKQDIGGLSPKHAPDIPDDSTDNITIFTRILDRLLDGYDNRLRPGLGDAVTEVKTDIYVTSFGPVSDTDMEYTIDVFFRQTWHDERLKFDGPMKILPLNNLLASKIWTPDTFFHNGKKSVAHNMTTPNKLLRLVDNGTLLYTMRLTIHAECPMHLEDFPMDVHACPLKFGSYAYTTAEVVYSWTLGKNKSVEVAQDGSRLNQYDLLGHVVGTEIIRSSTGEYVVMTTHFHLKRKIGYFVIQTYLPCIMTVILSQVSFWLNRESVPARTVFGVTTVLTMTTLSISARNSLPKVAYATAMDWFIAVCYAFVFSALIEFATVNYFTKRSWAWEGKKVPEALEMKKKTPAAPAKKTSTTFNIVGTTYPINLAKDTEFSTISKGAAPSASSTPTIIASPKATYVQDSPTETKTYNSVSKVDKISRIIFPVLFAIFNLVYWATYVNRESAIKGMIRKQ
T4 sequence (P28472 26-473 partner): as the sequence (P28472 26-473 partner) above
T4 sequence (P18507 40-475): as the sequence (P18507 40-475) above

Row | Structure (SMILES) | Number of Shocks Mean ± S.E.M. (Wistar rats; 1 mg/kg PO) | Number of Shocks Mean ± S.E.M. (Wistar rats; 3 mg/kg PO) | Number of Shocks Mean ± S.E.M. (Wistar rats; 10 mg/kg PO) | % Inhibition at 1000 nM for CBZD [1] | activation at 0.1 µM [2] [%] | activation at 0.1 µM [3] [%] | activation at 0.1 µM [4] [%] | activation at 0.1 µM [5] [%] | Number of Shocks Mean ± S.E.M. (Wistar rats; 0.3 mg/kg PO)
1 | Clc1ccc(-c2nc3ccccn3c2Cn2ccnn2)cc1 [Compound 40, 2-(4-Chloro-phenyl)-3-[1,2,3]triazol-1-ylmethyl-imidazo[1,2-a]pyridine] | 2.4 ± 0.4 | 3.4 ± 0.7 | 4.4 ± 0.7 | ++ (percentage of inhibition of central BZD site binding is greater than 80% in the presence of 1000 nM of the compound) | -10 to 10 | 10 to 50 | – | – | –
2 | CNc1ccn(Cc2c(-c3ccc(Cl)cc3)nc3ccccn23)c(=O)n1 [Compound 133, 1-((2-(4-chlorophenyl)imidazo[1,2-a]pyridin-3-yl)methyl)-4-(methylamino)pyrimidin-2(1H)-one] | – | – | – | ++ (percentage of inhibition of central BZD site binding is greater than 80% in the presence of 1000 nM of the compound) | 10 to 50 | ≥ 50 | -10 to 10 | -10 to 10 | –
3 | Cc1ccc(-c2nc3ccc(C)cn3c2CNc2ncccn2)cc1 [Compound 139, N-((6-methyl-2-p-tolylH-imidazo[1,2-a]pyridin-3-yl)methyl)pyrimidin-2-amine] | – | – | – | ++ (percentage of inhibition of central BZD site binding is greater than 80% in the presence of 1000 nM of the compound) | 10 to 50 | 10 to 50 | -10 to 10 | -10 to 10 | –
4 | Cc1ccnc(NCc2c(-c3ccccc3)nc3ccc(Cl)cn23)n1 [Compound 158, (6-Chloro-2-phenyl-imidazo[1,2-a]pyridin-3-ylmethyl)-(4-methyl-pyrimidin-2-yl)-amine] | – | – | – | ++ (percentage of inhibition of central BZD site binding is greater than 80% in the presence of 1000 nM of the compound) | -10 to 10 | 10 to 50 | -10 to 10 | 10 to 50 | –
5 | Cc1cc(Cl)nc(NCc2c(-c3ccc(Cl)cc3)nc3ccc(Cl)cn23)n1 [Compound 170, 4-chloro-N-((6-chloro-2-(4-chlorophenyl)imidazo[1,2-a]pyridin-3-yl)methyl)-6-methylpyrimidin-2-amine] | 5.6 ± 0.9 | 6.5 ± 1.0 | – | ++ (percentage of inhibition of central BZD site binding is greater than 80% in the presence of 1000 nM of the compound) | 10 to 50 | 10 to 50 | -10 to 10 | 10 to 50 | 5.1 ± 0.9
6 | Cc1nnc(Cc2c(-c3ccccc3)nc3ccc(Cl)cn23)o1 [Compound 205, 2-((6-chloro-2-phenylimidazo[1,2-a]pyridin-3-yl)methyl)-5-methyl-1,3,4-oxadiazole] | – | – | – | ++ (percentage of inhibition of central BZD site binding is greater than 80% in the presence of 1000 nM of the compound) | -10 to 10 | -10 to 10 | -10 to 10 | -10 to 10 | –
7 | Clc1ccc(-c2nc3ccccn3c2Cc2nnc(-c3ccccn3)[nH]2)cc1 [Compound 230, 2-(4-chlorophenyl)-3-((5-(pyridin-2-yl)-4H-1,2,4-triazol-3-yl)methyl)imidazo[1,2-a]pyridine] | – | – | – | ++ (percentage of inhibition of central BZD site binding is greater than 80% in the presence of 1000 nM of the compound) | 10 to 50 | 10 to 50 | 10 to 50 | 10 to 50 | –
8 | O=C1C=C(N2CCC(O)C2)CN1Cc1c(-c2ccc(Cl)cc2)nc2ccccn12 (centres unmarked) [Compound 240, 1-((2-(4-chlorophenyl)imidazo[1,2-a]pyridin-3-yl)methyl)-4-(3-hydroxypyrrolidin-1-yl)-1H-pyrrol-2(5H)-one] | – | – | – | ++ (percentage of inhibition of central BZD site binding is greater than 80% in the presence of 1000 nM of the compound) | ≥ 50 | 10 to 50 | -10 to 10 | -10 to 10 | –

Source: patent publication US8497278B2, “Imidazo[1,2-a]pyridine compounds” (priority 2008, dated 2013)
